Where two headings read alike, the source gives them in different places.
Assays:
J774 macrophages [1] = assay: Loss of total cell viability, MTT reduction; type: cell-based; details: for IC50: read-out: concentration causing 50% loss of total cell viability
[2] = tested on: protein prenylation in J774 cells; assay: Protein prenylation: incorporation of mevalonate into proteins; type: cell-based; details: for incorporation of radiolabel (mevalonate) into protein bands: 100 μM, 24 h labelling period
IPI (IPP isomerase) = IPI (IPP isomerase) (Homo sapiens, UniProt Q13907); assay: Inhibition of IPI (IPP isomerase) by bisphosphonates; type: biochemical; details: concentration required to inhibit enzyme activity by 50%
Sequence of IPI (IPP isomerase) (Q13907 whole entry): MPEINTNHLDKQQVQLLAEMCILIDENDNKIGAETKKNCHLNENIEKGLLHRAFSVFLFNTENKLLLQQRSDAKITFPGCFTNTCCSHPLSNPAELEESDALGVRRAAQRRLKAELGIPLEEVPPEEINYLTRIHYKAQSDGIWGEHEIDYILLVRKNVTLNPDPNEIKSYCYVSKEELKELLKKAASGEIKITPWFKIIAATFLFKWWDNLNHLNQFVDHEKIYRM

squalene synthase = target: T1, squalene synthase (Rattus norvegicus, UniProt Q02769); details: cited from earlier work
T1 sequence (Q02769 1-416): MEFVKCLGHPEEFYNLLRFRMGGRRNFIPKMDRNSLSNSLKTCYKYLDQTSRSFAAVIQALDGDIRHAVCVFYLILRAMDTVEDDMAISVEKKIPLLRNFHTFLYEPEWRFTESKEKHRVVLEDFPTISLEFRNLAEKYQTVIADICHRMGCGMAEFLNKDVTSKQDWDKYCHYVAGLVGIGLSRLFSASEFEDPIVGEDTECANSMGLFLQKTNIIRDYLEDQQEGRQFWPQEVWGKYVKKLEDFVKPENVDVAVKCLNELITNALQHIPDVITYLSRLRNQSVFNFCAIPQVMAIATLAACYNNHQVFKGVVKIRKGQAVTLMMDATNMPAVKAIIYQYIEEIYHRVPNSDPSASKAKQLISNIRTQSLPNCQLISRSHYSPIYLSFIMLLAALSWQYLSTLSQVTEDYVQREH

J774 macrophages [3] = assay: Assessment of apoptosis in J774 macrophages (nuclear morphology, DNA fragmentation); type: cell-based; details: 10-100 μM
Ras = assay: Immunoprecipitation of Ras: farnesylation of Ras; type: cell-based; details: 41 h
Rab6 = assay: Immunoprecipitation of Rab6: geranylgeranylation of Rab6; type: cell-based; details: 41 h

With `O=P(O)(O)C(Cl)(Cl)P(=O)(O)O` [clodronate] the “reduction in viability of J774 cells” value (J774 macrophages [1]; 750 μM) was “substantial reduction” and the “protein prenylation and synthesis of radiolabelled dye-front compounds” value ([2]; 750 μM) was “did not affect”.

For `CCCCCN(C)CCC(O)(P(=O)(O)O)P(=O)(O)O` [IBANDRONATE, ibandronate], the IC50 (IPI (IPP isomerase)) is given as 35 nM, the “incorporation of radiolabel (mevalonate) into protein bands” value (“incorporation of radiolabel” below) [2] is given as “markedly reduced” and the “inhibition of squalene synthase” value (squalene synthase) is given as “potent inhibitors”.

For `CC[C@H](C)C(=O)O[C@H]1CCC=C2C=C[C@H](C)[C@H](CC[C@@H]3C[C@@H](O)CC(=O)O3)[C@H]21` [mevastatin], the “loss of cell viability with cycloheximide co-incubation” value (J774 macrophages [1]; 15 μM mevastatin + 0.5 μM cycloheximide, 48 h) was “could be prevented”, the IC50 (J774 macrophages [1]; J774 cells, after 48 h) was roughly 10000 nM and the “loss of cell viability and apoptosis with FPP, GGPP or mevalonic acid lactone co-incubation” value (J774 macrophages [1]; mevastatin + 200 μM FPP, GGPP or mevalonic acid lactone) was “prevented (at least partially)”. For the same molecule, the “proportion of J774 cells with features typical of apoptosis” value (J774 macrophages [3]) was “dose-dependent increase”, the “farnesylated form of Ras after immunoprecipitation” value (Ras; 15 μM) was “Identical results” and the “geranylgeranylated form of Rab6 after immunoprecipitation” value (Rab6; 11 μM) was “barely detectable”.

In the case of `O=P(O)(O)C(NC1CCCCCC1)P(=O)(O)O` [YM175], the IC50 (IPI (IPP isomerase)) is listed as 35 nM, the “incorporation of radiolabel” value [2] is listed as “inhibited even more effectively” and the “inhibition of squalene synthase” value (squalene synthase) is listed as “potent inhibitors”.

In the case of `O=P(O)(O)C(O)(Cc1cccnc1)P(=O)(O)O` [RISEDRONATE, risedronate], the IC50 (IPI (IPP isomerase)) is reported as 22 nM and the IC50 (J774 macrophages [1]; Mus musculus, J774, 48 h) is reported as roughly 3000 nM.

For `NCCCC(O)(P(=O)(O)O)P(=O)(O)O` [ALENDRONATE, alendronate], the IC50 (IPI (IPP isomerase)) was 75 nM, the “apoptosis and loss of cell viability with FPP or GGPP co-incubation” value (J774 macrophages [1]; 100 μM alendronate + 200 μM FPP or GGPP) was “could be partially inhibited” and the IC50 (J774 macrophages [1]; Mus musculus, J774 cells, after 48 h) was roughly 30000 nM. For the same molecule, the “incorporation of radiolabel” value [2] was “markedly reduced”, the “farnesylated form of Ras after immunoprecipitation” value (Ras; 100 μM) was “barely detectable” and the “geranylgeranylated form of Rab6 after immunoprecipitation” value (Rab6; 10 μM) was “barely detectable”. The “inhibition of squalene synthase” value (squalene synthase) was “not”.

— patent publication US20020035058A1, “Isopentenyl pyrophosphate isomerase (IPI) and/or prenyl transferase inhibitors” (The University of Sheffield, priority 1996, published 2002)
